Reference: PMC7641325, “Fragment-based discovery of a new class of inhibitors targeting mycobacterial tRNA modification” (Nucleic Acids Research, 2020)
Converted amounts (≈) assume the structure as drawn. Read-outs that look alike come from different tables or passages of the source.

Key:
[1] = biological target: T1, M. abscessus TrmD (Mycobacteroides abscessus, UniProt B1MDI3); assay: biochemical; assay type: binding; details: for fold improvement in affinity (decrease in Kd) over the parent compound: AW3 vs AW2, AW4 vs AW3, AW5 vs AW4; for LE (ligand efficiency): from M. abscessus TrmD Kd
T1 sequence (B1MDI3 entry or part of it): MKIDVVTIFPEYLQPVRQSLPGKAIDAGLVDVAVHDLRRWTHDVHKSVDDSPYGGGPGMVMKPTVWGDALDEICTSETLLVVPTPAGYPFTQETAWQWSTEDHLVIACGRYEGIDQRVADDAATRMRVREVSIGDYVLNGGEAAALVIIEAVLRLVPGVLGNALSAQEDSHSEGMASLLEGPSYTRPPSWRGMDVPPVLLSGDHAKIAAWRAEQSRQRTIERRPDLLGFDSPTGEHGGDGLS

[2] = biological target: T1, M. abscessus TrmD; assay: TrmD methylation (methyltransferase) inhibition assay, UPLC readout; assay type: biochemical; details: for IC50: 6.25 μM SAM, 0.1 μM TrmD, 6.25 μM tRNA ProUGG, 1 h room temperature
Experimental: Assays for quantifying TrmD methylation reactions were carried out in 20 μl reactions consisting of 6.25 μM SAM, 0.1 μM TrmD and 6.25 μM tRNA^ProUGG in the presence of 0–500 μM compounds in serial dilutions using assay buffer containing 50 mM Tris–HCl pH 7.5, 10 mM MgCl2, 24 mM NH4Cl, 5% DMSO and 1 mM DTT in nuclease free water. tRNA sequences were identified from the M. abscessus genome sequence using tRNAscan-SE algorithm, ([38],[39]). […]. The reactions were carried out for 1 h at room temperature followed by addition of 20 mM EDTA to stop the reactions. Each of the 20 μl samples were diluted ten-fold with the UPLC mobile phase solvent A (0.1% formic acid in water), centrifuged for 10 min at 13 000 g, to remove any precipitates, and the supernatant was aliquoted into 96-well plates. 40 μl samples were then injected into Acquity UPLC (Waters) T3 […] column and eluted using a gradient elution consisting of Mobile Phase A: 0.1% formic acid in water and mobile phase B: 0.1% formic acid in 100% methanol for 4 min. The absorbance was monitored using a photodiode array (PDA) detector (Waters) at wavelength range of ƛ: 220–500 nm. All reactions were carried out in triplicate. The blank corrected data were analyzed using Microsoft excel and non-linear regression analysis for IC50 determination were done using GraphPad prism version 7.00, GraphPad Software, La Jolla, CA, USA.

[3] = test system: human macrophages; assay: LDH release cytotoxicity assay; assay type: cell-based; details: at or below a concentration of 150 μM
Text: Blood samples were donated by healthy volunteers who had undertaken informed consent in accordance with local Research Ethics Committee approval. Peripheral blood mononuclear cells were isolated from citrated peripheral blood samples by density gradient separation using Lympholyte (Cedarlane Labs), and subsequent CD14^+ positive selection using the MACS Miltenyi Biotec Human CD14 microbead protocol (Miltenyi Biotec). CD14^+ cells were differentiated into macrophages using recombinant human granulocyte-macrophage colony-stimulating factor (200 ng/ml GM-CSF) and recombinant human interferon gamma (50 ng/ml IFNγ) (Peprotech) in standard tissue culture DMEM media containing fetal calf serum, penicillin and streptomycin. […] At the given time points, supernatant was saved for cell cytotoxicity studies, and M. abscessus survival within the macrophages calculated by macrophage lysis in sterile water, and colony forming unit calculation on Columbia Blood Agar plates (VWR BDH).
Lactate dehydrogenase (LDH) was measured as a biomarker for cellular cytotoxicity using the Pierce LDH Cytotoxicity Assay Kit. Cell supernatant was measured at 2, 24 and 48 h post-infection according to the kit protocol.

[4] = test system: M. avium; assay: MIC measurement, M. avium; assay type: cell-based; details: Mycobacterium avium; clinical isolate; read-out: Minimum inhibitory concentration (MIC) M. avium
[5] = test system: M. tuberculosis H37Rv; assay: MIC measurement, M. tuberculosis; assay type: cell-based; details: Mycobacterium tuberculosis, 336 h, 7H9 base with DPPC, 2 weeks, 37°C, read-out: Minimum inhibitory concentration (MIC) M. tuberculosis
[6] = test system: M. abscessus; assay: MIC measurement, M. abscessus; assay type: cell-based, Mycobacterium abscessus ssp. abscessus (ATCC 19977); details: Mycobacteroides abscessus, ATCC19977; ATCC 19977, Middlebrook 7H9 ADC, 37°C; read-out: Minimum inhibitory concentration (MIC) M. abscessus
[7] = test system: M. gordonae; assay: MIC measurement, M. gordonae; assay type: cell-based; details: Mycobacterium gordonae; clinical isolate; read-out: Minimum inhibitory concentration (MIC) M. gordonae
[8] = biological target: T1, M. abscessus TrmD; assay: CRISPR-dCas9 knockdown of trmD in M. abscessus (target engagement); details: 25 μM AW7, doxycycline 1.5625-100 ng/ml, 72 h; effect not seen with yidC gRNA or empty vector
Text: The dCas9 encoding plasmid (pTetInt-dcas9-Km) and the second vector containing the sgRNA cassette (pGRNAz) were derived from the tetracycline inducible CRISPr Interference system of Choudhary et al. ([40]) and optimized for M. abscessus ATCC19977. The 20 nucleotides guides targeting yidC(MAB_4953c) and trmD(MAB_3226c) were annealed and cloned in between sphI and aclI of the pGRNAz. As a control the pGRNAz was left empty. The CRISPr-I containing strains were cultivated in Middlebrook 7H9 broth supplemented with 1× ADC, 0.05% tween80 and 0.5% glycerol, hygromycin 1 mg/ml and zeocin 300 μg/ml. The cultures were inoculated at 10^6CFU/ml from an exponentially grown pre-cultures. […] The OD600 was measured and the CFU counted at 72 h.

[9] = biological target: M. tuberculosis TrmD (Mycobacterium tuberculosis, UniProt P9WFY7); assay: Isothermal titration calorimetry (ITC) with M. tuberculosis TrmD; assay type: binding
Sequence of M. tuberculosis TrmD (P9WFY7 whole entry): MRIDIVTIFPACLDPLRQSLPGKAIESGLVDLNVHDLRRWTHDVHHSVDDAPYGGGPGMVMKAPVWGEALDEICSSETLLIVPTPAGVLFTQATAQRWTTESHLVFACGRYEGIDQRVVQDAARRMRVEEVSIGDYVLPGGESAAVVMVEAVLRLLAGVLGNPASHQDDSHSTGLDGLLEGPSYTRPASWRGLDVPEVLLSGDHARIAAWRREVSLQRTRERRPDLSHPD
Experimental: ITC experiments to quantify binding of ligands to TrmD were done as described in ([37]) using Malvern MicroCal iTC200 or Auto-iTC200 systems at 25°C. Titrations consisted of an initial injection (0.2 μl), discarded during data processing, followed by either 19 (2 μl) or 39 (1 μl) injections separated by intervals of 60–150 s duration. Protein was dialysed overnight at 4°C in storage buffer (M. abscessus TrmD: 50 mM HEPES pH 7.5, 500 mM NaCl, 5% glycerol; M. tuberculosis TrmD: 25 mM HEPES pH 7.5, 500 mM NaCl). Sample cell and syringe solutions were prepared using the same storage buffer, with a final DMSO concentration of 2–10% according to ligand solubility in the buffer. TrmD concentrations of either 33 or 100 μM were used, with ligand to protein concentration ratios ranging from 10 to 20:1. Control titrations without protein were also performed and subtracted from ligand to protein titrations. Titrations were fitted with Origin software (OriginLab, Northampton, MA, USA), using a one-site binding model with N fixed to 1 only for weakly binding ligands. Titrations were typically performed once (n = 1), with multiple isotherms obtained (n > 1) for key compounds of interest. Kd values are reported to two significant figures. Error provided by Origin software due to model fit is reported when n = 1, whereas standard deviation is reported when n > 1.

[10] = test system: M. chelonae; assay: MIC measurement, M. chelonae; assay type: cell-based; details: Mycobacteroides chelonae; clinical isolate; read-out: Minimum inhibitory concentration (MIC) M. chelonae
[11] = test system: M. abscessus-infected human macrophages; assay: Macrophage infection study (CFU of intracellular M. abscessus); assay type: cell-based, Mycobacterium abscessus; details: 25 μM compound, 48 h incubation
Text: Blood samples were donated by healthy volunteers who had undertaken informed consent in accordance with local Research Ethics Committee approval. Peripheral blood mononuclear cells were isolated from citrated peripheral blood samples by density gradient separation using Lympholyte (Cedarlane Labs), and subsequent CD14^+ positive selection using the MACS Miltenyi Biotec Human CD14 microbead protocol (Miltenyi Biotec). CD14^+ cells were differentiated into macrophages using recombinant human granulocyte-macrophage colony-stimulating factor (200 ng/ml GM-CSF) and recombinant human interferon gamma (50 ng/ml IFNγ) (Peprotech) in standard tissue culture DMEM media containing fetal calf serum, penicillin and streptomycin. Following removal of antibiotics, macrophages were infected at a multiplicity of infection of 10:1 with M. abscessus 19977 for 2 h, washed in sterile phosphate buffered saline, and then incubated in DMEM media with FCS and 25 μM of compound for 24 and 48 h. At the given time points, supernatant was saved for cell cytotoxicity studies, and M. abscessus survival within the macrophages calculated by macrophage lysis in sterile water, and colony forming unit calculation on Columbia Blood Agar plates (VWR BDH).

[12] = test system: M. terrae; assay: MIC measurement, M. terrae; assay type: cell-based; details: Mycolicibacter terrae; clinical isolate; read-out: Minimum inhibitory concentration (MIC) M. terrae
[13] = test system: axenically-maintained M. leprae; assay: M. leprae axenic culture, radiorespirometry; assay type: cell-based, Mycobacterium leprae; details: 100-6.25 μM, 7 days, 33°C
Experimental: Freshly harvested nude mouse foot pad derived M. leprae were suspended in modified 7H12 medium, AW7 was added at different concentrations (100–6.25 μM) and were incubated for 7 days at 33°C. Media only and rifampin (Sigma, USA) at 2.4 μM were used as negative and positive controls. Following incubation aliquots of AW7 treated and control M. leprae were processed for radiorespirometry (RR) as described previously ([43]).
Metabolism of a suspension of M. leprae was measured by evaluating the oxidation of ^14C-palmitic acid to ^14CO2 by radiorespirometry as described previously ([45]). Levels of captured ^14CO2 is proportional to the rate of ^14C-palmitic acid oxidation and used as an indicator of M. leprae viability. In the present study the seventh day cumulative counts per minute (CPM) were recorded and percentage inhibition of metabolism determined as compared to no drug control. Statistical significance between treatment groups and no drug control were determined by Student's t-test and P < 0.05 is considered as significant.

[14] = test system: M. leprae maintained intracellularly in murine bone marrow macrophage; assay: Intracellular M. leprae in murine bone marrow macrophages, radiorespirometry; assay type: cell-based; details: Mycobacterium leprae, 168 h, AW7 at 6.2 μM, 7 days, read-out: inhibition of β-oxidation (14C-palmitic acid oxidation, radiorespirometry)
Experimental: Bone marrow cells were obtained aseptically from both femurs of female BALB/c mice and cultured on plastic cover slips in Dulbecco modified Eagle's medium (DMEM, Life Technologies, USA) supplemented with 10% (v/v) fetal calf serum (Life Technologies), 25 mM/l HEPES (Sigma, USA), 2 mM/l glutamine (Sigma, USA), 50 μg/ml ampicillin (Sigma, USA) and 10 ng/ml of recombinant murine macrophages colony stimulating factor (R&D Systems, USA) for 6–7 days at 37°C and 5% CO2. The cells were infected with freshly harvested nude mice foot pad derived live M. leprae at a multiplicity of infection (MOI) of 20:1 overnight at 33°C and then washed to remove extracellular bacteria. AW7 was added at different concentrations (100–6.25 μM) and the cells were incubated for 7 days at 33°C. Media only and rifampicin at 2.4 μM were used as negative and positive controls. […]
Metabolism of a suspension of M. leprae was measured by evaluating the oxidation of ^14C-palmitic acid to ^14CO2 by radiorespirometry as described previously ([45]). […] In the present study the seventh day cumulative counts per minute (CPM) were recorded and percentage inhibition of metabolism determined as compared to no drug control. Statistical significance between treatment groups and no drug control were determined by Student's t-test and P < 0.05 is considered as significant.

[15] = test system: M. fortuitum; assay: MIC measurement, M. fortuitum; assay type: cell-based; details: Mycolicibacterium fortuitum; clinical isolate; read-out: Minimum inhibitory concentration (MIC) M. fortuitum
[16] = ITC, 25°C, M. abscessus TrmD, read-out: Kd

Row | Compound | fold improvement in affinity (decrease in Kd) over the parent compound [1] | Kd [1, 16] | LE (ligand efficiency) [1] | IC50 [2] | MIC [5] | MIC [6] | further results
1 | N#Cc1c(N)n[nH]c1-c1ccc2ccn(Cc3ccccn3)c2c1 [AW3] | 25 fold | 500 ± 140 nM | 0.36 kcal/ mol/ heavy atom | 310 ± 10 nM |  |  | fold decrease in IC50 over the parent compound ([2]; AW3 vs AW2): 100 fold
2 | OB(O)c1ccc2cc[nH]c2c1 [Fragment 24] |  | 260000 nM | 0.41 kcal/ mol/ heavy atom |  |  |  | 
3 | N#Cc1c(N)n[nH]c1-c1ccc2ccn(Cc3ccc(CN4CCCC4)cn3)c2c1 [AW4] | 5 fold | 92 ± 18 nM | 0.32 kcal/ mol/ heavy atom |  |  |  | 
4 | COc1ccc(-c2cc(N)n[nH]2)cc1 [Fragment 23] |  | 170000 nM | 0.37 kcal/ mol/ heavy atom |  |  |  | 
5 | Nc1cc(-c2ccc3ccn(Cc4ccccn4)c3c2)[nH]n1 [AW2] |  | 12000 ± 1000 nM | 0.30 kcal/ mol/ heavy atom | 33000 ± 4000 nM |  |  | 
6 | CN1CCN(Cc2ccc(Cn3ccc4ccc(-c5[nH]nc(N)c5C#N)cc43)cc2)CC1 [AW7] |  |  | 0.30 kcal/ mol/ heavy atom | 69 ± 7 nM | 6.3 µM (≈ 2.68 µg/mL) | 50 µM (≈ 21.3 µg/mL) | cellular toxicity (LDH release) [3]: neither compound caused cellular toxicity; MIC [4]: 100 µM (≈ 42.6 µg/mL); MIC [7]: 100 µM (≈ 42.6 µg/mL); sensitivity of M. abscessus to the compound on incremental silencing of TrmD [8]: progressively more sensitive to AW7; Kd [1]: 73 ± 30 nM; Kd [9]: 330 nM; MIC [10]: 100 µM (≈ 42.6 µg/mL); decrease in CFUs compared to the no drug control [11]: 95%; MIC [12]: 25 µM (≈ 10.6 µg/mL); inhibitory activity against axenic M. leprae (radiorespirometry) [13]: show inhibitory activity; inhibition at 6.2 µM [14]: > 50%; MIC [15]: 100 µM (≈ 42.6 µg/mL)
7 | Nc1cc(-c2ccc3ccn(Cc4ccc(CN5CCCC5)cc4)c3c2)[nH]n1 [AW6] |  |  | 0.31 kcal/ mol/ heavy atom | 1400 ± 100 nM | 6.3 µM (≈ 2.34 µg/mL) | 50 µM (≈ 18.6 µg/mL) | cellular toxicity (LDH release) [3]: neither compound caused cellular toxicity; MIC [4]: 200 µM (≈ 74.3 µg/mL); MIC [7]: 100 µM (≈ 37.1 µg/mL); Kd [1]: 490 ± 210 nM; Kd [9]: 900 nM; MIC [10]: 100 µM (≈ 37.1 µg/mL); decrease in CFUs compared to the no drug control [11]: ~82%; MIC [12]: 100 µM (≈ 37.1 µg/mL); MIC [15]: 100 µM (≈ 37.1 µg/mL)
8 | N#Cc1c(N)n[nH]c1-c1ccc2ccn(Cc3ccc(CN4CCCC4)cc3)c2c1 [AW5] | > 3 fold | 27 ± 4 nM | 0.34 kcal/ mol/ heavy atom | 30 ± 3 nM | 12.5 µM (≈ 4.96 µg/mL) | 50 µM (≈ 19.8 µg/mL) | 
9 | Nc1cc(-c2ccc3cc[nH]c3c2)[nH]n1 [AW1] |  | 110000 ± 11000 nM | 0.36 kcal/ mol/ heavy atom | 230000 ± 29000 nM |  |  | 
